Measurements reported in article PMC9609996, “SAR Study and Molecular Mechanism Investigation of Novel Naphthoquinone-furan-2-cyanoacryloyl Hybrids with Antitumor Activity” (Pharmaceutics, 2022).

Assays:
Bax in HeLa cells = assay: Western blot, Bax; type: cell-based, human; conditions: 6–12 μM, 24 h
Procedure: (§1) Protein levels were determined by the standard Western blot assay. HeLa cells were incubated with different concentrations of compound 5c or 0.1% DMSO for 24 h. Cells harvested with trypsin were treated with 1× RIPA lysis buffer (50 mM Tris-HCl, pH 7.4, 150 mM NaCl, 0.25% deoxycholic acid, 1% NP-40, 1 mM ethylenediaminetetraacetate (EDTA), and protease inhibitor PMSF (Solarbio, Beijing, China) to extract the total proteins. Then, an aliquot of proteins from the total cell lysates (4–40 μg/lane) was separated using sodium dodecyl sulfate (8, 10, or 12%) polyacrylamide gel electrophoresis (BioRad Laboratories, Hercules, CA, USA). The aliquot was wet-transferred to a PVDF membrane (BioRad Laboratories, Hercules, CA, USA), blotted with primary antibodies (purchased from Cell Signaling Technology, Danvers, MA, USA) specific for the STAT3 (#12640), p-STAT3 (#9145), AKT (#4691), p-AKT (#4060), Bax (#5023), Bcl-xl (#2764), secondary isotype-specific antibodies (#7074) and glyceraldehyde-3-phosphate dehydro-genase (GAPDH, #2118) as the internal standard overnight; then, they were probed with secondary isotype-specific antibodies for another 2 h at 37 °C. The bound immuno-complexes were detected using a ChemiDOC XRS+ system (BioRad Laboratories, Hercules, CA, USA).

Bcl-xl in HeLa cells = assay: Western blot, Bcl-xl; type: cell-based, human; conditions: 6–12 μM, 24 h
Procedure: as §1

Hep3B = assay: CCK-8 anti-proliferation assay, Hep3B; type: cell-based, human; conditions: 48 h, mean ± SD
Procedure: (§2) Human cervical cancer HeLa, human prostate cancer PC3, human colonic carcinoma HCT116, human lung carcinoma A549, human breast cancer MDA-MB-231, mouse melanoma B16, human ovarian cancer SKOV3, human hepatoma Hep3B, and human liver L02 cells were purchased from the Cell Bank of Shanghai Institute of Biochemistry and Cell Biology, Chinese Academy of Sciences (Shanghai, China). The HeLa, A549, B16, PC3, MDA-MB-231, HCT116, and L02 cells were cultured in Dulbecco’s modified Eagle medium (DMEM, Gibco Inc.; Gaithersburg, MD, USA). All cultures were supplied with 10% fetal bovine serum (FBS; YHSM, Beijing, China), 100 IU/mL of penicillin, and 100 μg/mL of streptomycin, and cells were incubated at 37 °C in an atmosphere of 5% CO2.
(§3) A CCK-8 kit (MCE, USA) was used to perform a CCK-8 assay. Cells were plated and grown in the 96-well plates for the indicated period (48 h) in the incubator, followed by an incubation with the CCK-8 solutions for 1–4 h. Subsequently, the absorbance (450 nm) was measured by a microplate reader. The median inhibitory concentration (IC50) was determined from the dose–response curve. Experiments were performed in a triplicate.

HeLa = assay: CCK-8 anti-proliferation assay, HeLa; type: cell-based, human; conditions: Homo sapiens, mean ± SD
Procedure: as §2, §3

ROS in HeLa cells = assay: Cellular ROS detection (DCFDA flow cytometry); type: cell-based, human; conditions: 6, 9, 12 μM, 6 h
Procedure: To measure reactive oxygen species (ROS) production, 2′,7′-dichlorofluorescein diacetate (DCFDA) (Thermo Fisher Scientific, Waltham, MA, USA; D399) was used. DCFDA is a fluorogenic dye that, after diffusion into the cell, is oxidized by ROS into 2′,7′-dichlorofluorescein (DCF), a highly fluorescent compound that can be detected by fluorescence spectroscopy. To measure ROS production, HeLa cells were treated with compound 5c at 6 μM, 9 μM, and 12 μM for 6 h. Then, cells were washed with pre-warmed 1X PBS and were incubated at 37 °C with 10 μM of DCFDA for 30 min in PBS. Subsequently, the HeLa cells were washed and analyzed in FL-1 using a FACScalibur flow cytometer (BD, USA) and using CELL Quest software (BD Biosciences, San Jose, CA, USA). Live cells were gated according to their forward scatter (FSC) and side scatter (SSC) properties. For each analysis, 20,000 events were recorded.

[1] = system: AKT phosphorylation in HeLa cells; assay: Western blot, AKT phosphorylation; type: cell-based, human; conditions: 6 h interval
Procedure: as §1, with “HeLa cells were incubated with different concentrations of compound 5c or 0.1% DMSO for 24 h.” left out

PC3 = assay: CCK-8 anti-proliferation assay, PC3; type: cell-based, human; conditions: mean ± SD; for IC50: 48 h
Procedure: as §2, §3

[2] = system: four cancer cell lines (HeLa, PC3, A549, and HCT116); assay: CCK-8 inhibition rates over four cancer cell lines; type: cell-based; conditions: Homo sapiens, HeLa, PC3, A549, HCT116, CCK-8, read-out: inhibition rate, span over the four cancer cell lines
Procedure: First, the inhibition rates at 20 μM for all newly synthesized compounds were evaluated on four cancer cell lines (HeLa, PC3, A549, and HCT116) by a CCK-8 assay. […] A variety of aliphatic amine substituents were well tolerated (4e, 4f, 5c, and 8f).
as §2, §3

L02 cells = assay: CCK-8 assay on normal cells, L02; type: cell-based; conditions: L02 human normal hepatocytes, 48 h, mean ± SD
Procedure: as §2, §3

STAT3 in HeLa cells = assay: Western blot, STAT3 and p-STAT3 (Y705); type: cell-based, human; conditions: 6–12 μM, 24 h
Procedure: As many quinone compounds have anti-proliferation activity by inhibiting the STAT3 [34], we evaluated whether compound 5c could inhibit its phosphorylation. HeLa cells were incubated with different concentrations (6–12 μM) of 5c for 24 h. Then, the levels of total STAT3 and phosphorylated STAT3 at the tyrosine 705 residue were detected by a Western blot analysis.
Protein levels were determined by the standard Western blot assay. HeLa cells were incubated with different concentrations of compound 5c or 0.1% DMSO for 24 h. […] The bound immuno-complexes were detected using a ChemiDOC XRS+ system (BioRad Laboratories, Hercules, CA, USA).

- IC50 (Hep3B): 34.77 ± 0.03 µM
- IC50 (Hep3B; Homo sapiens): > 20.5 µM
- IC50 (HeLa; 48 h): 3.1 ± 0.02 µM
- IC50 (PC3): 20.5 ± 0.05 µM
- IC50 (PC3; Homo sapiens, PC-3, 48 h): > 20.5 µM
Compound: N#C/C(=C\c1ccc(C2=CC(=O)c3ccccc3C2=O)o1)C(=O)NCCN1CCOCC1 [Compound 5c, (E)-2-cyano-3-(5-(1,4-dioxo-1,4-dihydronaphthalen-2-yl)furan-2-yl)-N-(2-morpholinoethyl)acrylamide]
- levels of Bax (Bax in HeLa cells): increased
- total Bcl-xl levels (Bcl-xl in HeLa cells): significantly decreased
- inhibition at 20 µM (HeLa; 20 μM, read-out: Inhibition Rate (%) at 20 μM HeLa): 75.78 ± 0.05%
- level of ROS in cancer cells (ROS in HeLa cells): significantly increased
- phosphorylation level of AKT [1]: effectively inhibited
- inhibition at 20 µM (PC3; Homo sapiens, PC-3, 20 μM, read-out: Inhibition Rate (%) at 20 μM PC3): 25.54 ± 0.06%
- inhibition at 20 µM [2]: 24.7 to 75.8%
- IC50 (L02 cells): 51.7 ± 0.1 µM
- Y705 STAT3 phosphorylation (STAT3 in HeLa cells): dose-dependently abrogated
- level of total STAT3 (STAT3 in HeLa cells): slightly down-regulated
